The results in this text go back to BindingDB's records for doi:10.1074/jbc.M413155200 (Vertex Pharmaceuticals, 2005).

A word on the IC50: it is the point on the concentration scale where inhibition reaches its midpoint. A high value points to weaker potency.

For this assay, the target named is Serine/threonine-protein kinase pim-1 (Homo sapiens, UniProt P11309). The assay is described as follows: Kinase Assay. The conditions noted are these: pH 7.6; 30 °C.
Chain of Serine/threonine-protein kinase pim-1 (P11309 whole entry): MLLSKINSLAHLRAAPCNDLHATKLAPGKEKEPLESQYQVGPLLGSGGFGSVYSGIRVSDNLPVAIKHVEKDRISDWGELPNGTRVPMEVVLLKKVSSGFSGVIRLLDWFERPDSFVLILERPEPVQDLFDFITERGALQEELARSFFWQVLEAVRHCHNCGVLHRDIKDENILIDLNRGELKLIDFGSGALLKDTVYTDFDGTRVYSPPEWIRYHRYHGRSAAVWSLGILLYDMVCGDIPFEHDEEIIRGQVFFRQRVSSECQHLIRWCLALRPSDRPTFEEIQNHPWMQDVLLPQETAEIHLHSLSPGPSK

Consider `COC(=O)[C@@]1(O)C[C@H]2O[C@]1(C)n1c3ccccc3c3c4c(c5c6ccccc6n2c5c31)C(=O)NC4`, for which the concentration for half-maximal inhibition (IC50) amounted to 0.15 µM.
